Data: ChEMBL document CHEMBL1201862, “PubChem BioAssay data set” (2004)
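How tested: cells in 96-well plates exposed to compound for 48 hours at five concentrations. GI50 = concentration required for 50% inhibition of growth.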 Activity calls are given as the source filed them. No stated cut-off is given here; in the data, active = GI50 up to about 1.1 µM and inactive = higher.

Assays:
Experiment in all cases: inhibition of tumour cell growth, NCI panel, 48 h
SF-268 = system: SF-268
UACC-257 = system: UACC-257
Malme-3M = system: Malme-3M
OVCAR-4 = system: OVCAR-4
BT-549 = system: BT-549
K562 = system: K562
SF-539 = system: SF-539
HCT-15 = system: HCT-15
SN12C = system: SN12C
SF-295 = system: SF-295
ACHN = system: ACHN
LOX IMVI = system: LOX IMVI
SNB-19 = system: SNB-19
DU-145 = system: DU-145
UACC-62 = system: UACC-62
NCI/ADR-RES = system: NCI/ADR-RES
A549 = system: A549
COLO 205 = system: COLO 205
CAKI-1 = system: CAKI-1
NCI-H460 = system: NCI-H460

SMILES	GI50 (SF-268)	GI50 (UACC-257)	GI50 (Malme-3M)	GI50 (OVCAR-4)	GI50 (BT-549)	GI50 (K562)	GI50 (SF-539)	GI50 (HCT-15) [µM]	GI50 (SN12C)	GI50 (SF-295)	GI50 (ACHN)	GI50 (LOX IMVI)	GI50 (SNB-19)	GI50 (DU-145)	GI50 (UACC-62)	GI50 (NCI/ADR-RES)	GI50 (A549)	GI50 (COLO 205)	GI50 (CAKI-1)	GI50 (NCI-H460)
CC1Cc2c(Br)nc(N)nc2NC1=O (stereo not given)	> 100 µM (inactive)	> 100 µM (inactive)	> 100 µM (inactive)	> 100 µM (inactive)	> 100 µM (inactive)	> 100 µM (inactive)	> 100 µM (inactive)	> 100	> 100 µM (inactive)	> 100 µM (inactive)	> 100 µM (inactive)	> 100 µM (inactive)	> 100 µM (inactive)	> 100 µM (inactive)	> 100 µM (inactive)	> 100 µM (inactive)	> 100 µM (inactive)	> 100 µM (inactive)	> 100 µM (inactive)	> 100 µM (inactive)
C[C@H](CCC(=O)NN)[C@H]1CC[C@H]2[C@@H]3CC[C@@H]4C[C@H](O)CC[C@]4(C)[C@H]3CC[C@]12C	65.3 µM (inactive)	61.7 µM (inactive)	52.1 µM (inactive)	> 67.1 µM (inactive)	57.8 µM (inactive)	14.7 µM (inactive)	84.1 µM (inactive)	39.7	55.7 µM (inactive)	> 68.2 µM (inactive)	54.8 µM (inactive)	31.6 µM (inactive)	97.3 µM (inactive)	> 50.8 µM (inactive)	> 100 µM (inactive)	64.1 µM (inactive)	54.1 µM (inactive)	31.6 µM (inactive)	46.3 µM (inactive)	52.1 µM (inactive)
CC(C)C1=C(Cc2ccccc2)C(=O)O/C1=C\c1cc(Cl)c(O)c(Cl)c1	22.6 µM (inactive)	16.9 µM (inactive)	16.7 µM (inactive)	15.6 µM (inactive)	> 10 µM (inactive)	17.4 µM (inactive)	21.5 µM (inactive)	18.2	17.2 µM (inactive)	16 µM (inactive)	17.3 µM (inactive)	17.4 µM (inactive)	17.1 µM (inactive)	16 µM (inactive)	16.9 µM (inactive)	23.3 µM (inactive)	21.6 µM (inactive)	17.4 µM (inactive)	15.8 µM (inactive)	18.2 µM (inactive)
CCOC(=O)Nn1c(C)nnc1-c1ccccc1	> 100 µM (inactive)	> 100 µM (inactive)	> 100 µM (inactive)	> 100 µM (inactive)	> 100 µM (inactive)	> 100 µM (inactive)	> 100 µM (inactive)	> 100	> 100 µM (inactive)	> 100 µM (inactive)	> 100 µM (inactive)	> 100 µM (inactive)	> 100 µM (inactive)	> 100 µM (inactive)	> 100 µM (inactive)	> 100 µM (inactive)	> 100 µM (inactive)	> 100 µM (inactive)	> 100 µM (inactive)	> 100 µM (inactive)
CC(=O)OC12c3ccccc3C(c3ccccc31)C1C(=O)N(Nc3ccccc3)C(=O)C12 (stereo not given)	> 100 µM (inactive)	> 100 µM (inactive)	> 100 µM (inactive)	> 100 µM (inactive)	> 100 µM (inactive)	> 100 µM (inactive)	> 100 µM (inactive)	> 100	> 100 µM (inactive)	> 100 µM (inactive)	> 100 µM (inactive)	> 100 µM (inactive)	> 100 µM (inactive)	> 100 µM (inactive)	> 10 µM (inactive)	> 100 µM (inactive)	> 100 µM (inactive)	> 100 µM (inactive)	> 100 µM (inactive)	> 100 µM (inactive)
C[C@]12CC[C@H]3[C@@H](CCC4=CC(=O)CC[C@@H]43)[C@@H]1CC[C@@H]2OC1(O)C(=O)c2ccccc2C1=O	34.1 µM (inactive)	28.5 µM (inactive)	34 µM (inactive)	91.4 µM (inactive)	66.8 µM (inactive)	35.3 µM (inactive)	32.4 µM (inactive)	37.8	17 µM (inactive)	> 100 µM (inactive)	27.7 µM (inactive)	37.5 µM (inactive)	> 100 µM (inactive)	16.5 µM (inactive)	11.7 µM (inactive)	63 µM (inactive)	> 100 µM (inactive)	24.4 µM (inactive)	80.2 µM (inactive)	67 µM (inactive)
C=C(CO[Si](C)(C)C(C)(C)C)C(C)=O	31.4 µM (inactive)	18 µM (inactive)	16.6 µM (inactive)	21 µM (inactive)	20.2 µM (inactive)	6.73 µM (inactive)	39.1 µM (inactive)	13.9	27.7 µM (inactive)	> 100 µM (inactive)	26.5 µM (inactive)	4.94 µM (inactive)	> 86.1 µM (inactive)	> 100 µM (inactive)	15.7 µM (inactive)	26.9 µM (inactive)	> 100 µM (inactive)	24.5 µM (inactive)	22.3 µM (inactive)	> 77.4 µM (inactive)
CC1(C)CC(=O)C(C(c2cccc(O)c2O)C2C(=O)CC(C)(C)CC2=O)C(=O)C1	73.8 µM (inactive)	> 100 µM (inactive)	> 100 µM (inactive)	> 100 µM (inactive)	> 100 µM (inactive)	92.9 µM (inactive)	> 100 µM (inactive)	57.1	> 100 µM (inactive)	> 100 µM (inactive)	> 100 µM (inactive)	81.8 µM (inactive)	> 100 µM (inactive)	> 100 µM (inactive)	> 100 µM (inactive)	> 100 µM (inactive)	> 100 µM (inactive)	> 100 µM (inactive)	> 100 µM (inactive)	> 100 µM (inactive)
Nc1ncnc2c1ncn2CCCCC(=O)O	> 100 µM (inactive)	> 100 µM (inactive)	> 100 µM (inactive)	> 100 µM (inactive)	> 100 µM (inactive)	> 100 µM (inactive)	> 100 µM (inactive)	> 100	> 100 µM (inactive)	> 100 µM (inactive)	> 100 µM (inactive)	> 100 µM (inactive)	> 100 µM (inactive)	> 100 µM (inactive)	> 100 µM (inactive)	> 100 µM (inactive)	> 100 µM (inactive)	> 100 µM (inactive)	> 100 µM (inactive)	> 100 µM (inactive)
Cc1cc(/N=C2\C=C(Nc3cc(C)on3)C(=O)c3ccccc32)no1	36.9 µM (inactive)	13.9 µM (inactive)	21.5 µM (inactive)	> 100 µM (inactive)	27.5 µM (inactive)	> 100 µM (inactive)	31.6 µM (inactive)	48.1	> 80.9 µM (inactive)	46.5 µM (inactive)	> 64.3 µM (inactive)	8.71 µM (inactive)	61 µM (inactive)	52.5 µM (inactive)	12 µM (inactive)	69 µM (inactive)	31.2 µM (inactive)	31.3 µM (inactive)	> 85.9 µM (inactive)	> 67.8 µM (inactive)
Cc1nn(C(=O)c2ccc(Cl)cc2)c2c1C(c1ccc(O)cc1)SC(=N)N2 (stereo not given)	> 10 µM (inactive)	> 10 µM (inactive)	> 10 µM (inactive)	> 10 µM (inactive)	> 10 µM (inactive)	> 10 µM (inactive)	> 10 µM (inactive)	> 10	> 10 µM (inactive)	> 10 µM (inactive)	> 10 µM (inactive)	> 10 µM (inactive)	> 10 µM (inactive)	> 10 µM (inactive)	> 10 µM (inactive)	> 10 µM (inactive)	> 10 µM (inactive)	> 10 µM (inactive)	> 10 µM (inactive)	> 10 µM (inactive)
Cc1c(C)c2c(c(N)c1C#N)C(=O)N(CCc1ccccc1)C2=O	> 100 µM (inactive)	> 100 µM (inactive)	> 100 µM (inactive)	> 100 µM (inactive)	> 100 µM (inactive)	> 100 µM (inactive)	> 100 µM (inactive)	> 100	> 100 µM (inactive)	> 100 µM (inactive)	> 100 µM (inactive)	> 100 µM (inactive)	> 100 µM (inactive)	> 100 µM (inactive)	> 100 µM (inactive)	> 100 µM (inactive)	94.8 µM (inactive)	> 100 µM (inactive)	> 100 µM (inactive)	> 100 µM (inactive)
O=C1c2ccsc2-c2cccc3cccc1c23.O=C1c2sccc2-c2cccc3cccc1c23	7.89 µM (inactive)	9.2 µM (inactive)	0.353 µM (active)	11 µM (inactive)	1.94 µM (inactive)	10 µM (inactive)	6.22 µM (inactive)	3.18	6.67 µM (inactive)	8.79 µM (inactive)	2.37 µM (inactive)	3.72 µM (inactive)	2.93 µM (inactive)	0.65 µM (active)	4.15 µM (inactive)	3.56 µM (inactive)	3.32 µM (inactive)	2.33 µM (inactive)	2.26 µM (inactive)	4.94 µM (inactive)
COc1cc(-c2oc3ccccc3c(=O)c2O)cc(OC)c1OC	11.7 µM (inactive)	> 69.3 µM (inactive)	> 94.6 µM (inactive)	7 µM (inactive)	> 55.2 µM (inactive)	6.71 µM (inactive)	26.3 µM (inactive)	4.62	> 100 µM (inactive)	35.7 µM (inactive)	6.9 µM (inactive)	6.24 µM (inactive)	> 58.9 µM (inactive)	> 31.6 µM (inactive)	6.5 µM (inactive)	4.32 µM (inactive)	9.02 µM (inactive)	73.3 µM (inactive)	26.2 µM (inactive)	4.19 µM (inactive)
